Experimental data published in patent US20180282323A1, “Mesoionic imidazole derivatives as insecticides” (BAYER CROPSCIENCE AKTIENGESELLSCHAFT, priority 2015, published 2018).

Experiment: log P by HPLC on reversed-phase column (EEC directive 79/831 Annex V.A8)
Assay type: physicochemical
Conditions: not given
Protocol: a) The determination of the [M+H]^+ by LC-MS in the acidic range was effected at pH 2.7, with acetonitrile (containing 0.1% formic acid) and water as eluents; linear gradient from 10% acetonitrile to 95% acetonitrile, instrument: Agilent 1100 LC system, Agilent MSD system, HTS PAL.
The log P values reported in the tables and preparation examples above were determined in accordance with EEC directive 79/831 Annex V.A8 by HPLC (High Performance Liquid Chromatography) using a reversed-phase column (C18). Temperature 43° C.

Compound | chromatographic logP
Clc1ccc(CNc2ncccn2)cn1 [N-[(6-chloropyridin-3-yl)methyl]pyrimidin-2-amine] | 1.36
CCNCC(=O)c1c([O-])n(Cc2cnc(Cl)s2)c2cccc[n+]12 [Example I-1-021, 1-[(2-Chloro-1,3-thiazol-5-yl)methyl]-3-(N-ethylglycyl)-1H-imidazo[1,2-a]pyridin-4-ium-2-olate] | 0.57

Same assay, conditions: HPLC on reversed-phase column

log p a) | Compound
3.1 | Cc1cccc(F)c1NC(=O)c1c([O-])n(Cc2cnc(Cl)s2)c2cccc[n+]12 [Example I-1-322]
1.47 | COC(=O)c1c([O-])n(Cc2cnc(Cl)cn2)c2c(C)ccc[n+]12 [Example I-1-281]
1.99 | O=C(Nc1ncccc1C(F)(F)F)c1c([O-])n(Cc2cnc(Cl)s2)c2cccc[n+]12 [Example I-1-336]
1.15 | CNC(=O)c1c([O-])n(Cc2cnc(Cl)cn2)c2cccc[n+]12 [Example I-1-280]
1.57 | Cc1cnc(Cn2c([O-])c(C(=O)NCC(F)(F)F)[n+]3ccccc23)cn1 [Example I-1-242]
1.91 | O=C(Nc1ncccc1[N+](=O)[O-])c1c([O-])n(Cc2cnc(Cl)s2)c2cccc[n+]12 [Example I-1-320]
1.99 | Cn1ncc(Br)c1NC(=O)c1c([O-])n(Cc2cnc(Cl)s2)c2cccc[n+]12 [Example I-1-332]
2.05 | O=C(Nc1nccs1)c1c([O-])n(Cc2cnc(Cl)s2)c2cccc[n+]12 [Example I-1-318]
1.58 | N#CC1(NC(=O)c2c([O-])n(Cc3cnc(Cl)s3)c3cccc[n+]23)CC1 [Example I-1-270]
0.91 | Cc1cccnc1NC(=O)c1c([O-])n(Cc2cnc(Cl)s2)c2cccc[n+]12 [Example I-1-337]
1.58 | O=C(Nc1ncccc1Br)c1c([O-])n(Cc2cnc(Cl)s2)c2cccc[n+]12 [Example I-1-335]
1.81 | O=C(Nc1cnccc1Cl)c1c([O-])n(Cc2cnc(Cl)s2)c2cccc[n+]12 [Example I-1-334]

Compound | log p a)
Cc1cccc(NC(=O)c2c([O-])n(Cc3ccc(Cl)nc3)c3cccc[n+]23)c1 [Example I-1-300] | 1.41
Cc1ccc[n+]2c(C(=O)NC3(C#N)CCCCC3)c([O-])n(Cc3ccc(Cl)nc3)c12 [Example I-1-263] | 2.62
O=C(Nc1nccs1)c1c([O-])n(Cc2ccc(Cl)nc2)c2cccc[n+]12 [Example I-1-324] | 1.93
O=C(Nc1cc(Cl)cc(Cl)c1)c1c([O-])n(Cc2ccc(Cl)nc2)c2cccc[n+]12 [Example I-1-295] | 4.1
Cc1ccc[n+]2c(C(=O)NC3CCCCC3)c([O-])n(Cc3ccc(Cl)nc3)c12 [Example I-1-253] | 2.72
Cc1cnc(NC(=O)c2c([O-])n(Cc3ccc(Cl)nc3)c3cccc[n+]23)s1 [Example I-1-327] | 2.17
O=C(c1c([O-])n(Cc2cnc(Cl)s2)c2cccc[n+]12)N1CCCC1 [Example I-1-273] | 1.52
Cc1ccc[n+]2c(C(=O)Nc3ccccn3)c([O-])n(Cc3ccc(Cl)nc3)c12 [Example I-1-264] | 1.68
Cc1ccc[n+]2c(C(=O)NCC3CCCCC3)c([O-])n(Cc3ccc(Cl)nc3)c12 [Example I-1-255] | 3.21

Same assay, conditions: HPLC on reversed-phase column (footnote a)

Compound | log p
O=C(CCl)c1c([O-])n(Cc2cnc(Cl)s2)c2cc(Cl)cc[n+]12 [Example I-1-120] | 2.17
O=C(Nc1ccc(Cl)nc1)c1c([O-])n(Cc2cnc(Cl)s2)c2cccc[n+]12 [Example I-1-153] | 3.06
O=C(CCl)c1c([O-])n(Cc2ccc(Cl)nc2)c2c(Cl)ccc[n+]12 [Example I-1-090] | 1.99
O=C(COc1ccc(Cl)cc1)c1c([O-])n(Cc2cnc(Cl)s2)c2cccc[n+]12 [Example I-1-074] | 2.84
O=C(NC1CC1)c1c([O-])n(Cc2cnc(Cl)s2)c2cc(Cl)cc[n+]12 [Example I-1-184] | 2.14
O=C(Nc1ccc(Cl)cc1)c1c([O-])n(Cc2cnc(Cl)s2)c2cccc[n+]12 [Example I-1-150] | 3.39
O=C(Cn1cccn1)c1c([O-])n(Cc2ccc(Cl)nc2)c2c(F)ccc[n+]12 [Example I-1-105] | 1.55
COC(=O)c1c([O-])n(Cc2ccc(Cl)nc2)c2c(Cl)ccc[n+]12 [Example I-1-130] | 1.56
COC(=O)COCC(=O)c1c([O-])n(Cc2ccc(Cl)nc2)c2cccc[n+]12 [Example I-1-030] | 1.31
COCC(=O)c1c([O-])n(Cc2ccc(Cl)nc2)c2cc(C(F)(F)F)cc[n+]12 [Example I-1-069] | 1.99
O=C(NC1CC1)c1c([O-])n(Cc2cnc(Cl)s2)c2c(Cl)ccc[n+]12 [Example I-1-140] | 2.01
O=C(NC1CC1)c1c([O-])n(Cc2ccc(Cl)nc2)c2c(F)cc(F)c[n+]12 [Example I-1-197] | 1.99
COCC(=O)c1c([O-])n(Cc2cnc(Cl)s2)c2cc(Cl)cc[n+]12 [Example I-1-123] | 1.90
CCNC(=O)c1c([O-])n(Cc2cnc(Cl)s2)c2cccc[n+]12 [Example I-1-134] | 1.58
O=C(COc1cccc(Cl)c1)c1c([O-])n(Cc2cnc(Cl)s2)c2cccc[n+]12 [Example I-1-073] | 2.87
CCNCC(=O)c1c([O-])n(Cc2ccc(Cl)nc2)c2cccc[n+]12 [Example I-1-024] | 0.42

Compound | log p
O=C(CCl)c1c([O-])n(Cc2ccc(C(F)(F)F)nc2)c2cccc[n+]12 [Example I-1-163] | 1.9
COC(=O)c1c([O-])n(Cc2ccc(Cl)nc2)c2c(F)cc(F)c[n+]12 [Example I-1-156] | 1.56
O=C(NCc1ccc(Cl)cc1)c1c([O-])n(Cc2cnc(Cl)s2)c2cccc[n+]12 [Example I-1-149] | 2.86
O=C(Cn1ccnc1)c1c([O-])n(Cc2cnc(Cl)s2)c2cccc[n+]12 [Example I-1-050] | 0.46
Cc1ccc[n+]2c(C(=O)Nc3ccc(Cl)cc3)c([O-])n(Cc3ccc(Cl)nc3)c12 [Example I-1-187] | 3.41
O=C(CCl)c1c([O-])n(Cc2ccc(Cl)nc2)c2c(F)ccc[n+]12 [Example I-1-100] | 1.81
O=C(CCl)c1c([O-])n(Cc2ccc(Cl)nc2)c2ccc(F)c[n+]12 [Example I-1-099] | 1.78
O=C(CCl)c1c([O-])n(Cc2cncc(Cl)c2)c2cccc[n+]12 [Example I-1-162] | 1.53
O=C(COc1ccccc1)c1c([O-])n(Cc2ccc(Cl)nc2)c2cccc[n+]12 [Example I-1-007] | 2.2
COC(=O)c1c([O-])n(Cc2ccc(Cl)nc2)c2c(SC)ccc[n+]12 [Example I-1-194] | 1.64
N#Cc1cc[n+]2c(C(=O)CCl)c([O-])n(Cc3ccc(Cl)nc3)c2c1 [Example I-1-067] | 1.83
Cc1ccc[n+]2c(C(=O)Cn3cc(Cl)cn3)c([O-])n(Cc3cnc(Cl)s3)c12 [Example I-1-095] | 2.27
O=C(NC1CC1)c1c([O-])n(Cc2cnc(Cl)s2)c2cc(C(F)(F)F)cc[n+]12 [Example I-1-141] | 2.38
CNC(=O)c1ccn(CC(=O)c2c([O-])n(Cc3cnc(Cl)s3)c3cccc[n+]23)n1 [Example I-1-048] | 1.27
O=C(NC1CC1)c1c([O-])n(Cc2ccc(Cl)nc2)c2c(F)ccc[n+]12 [Example I-1-127] | 1.82

Same assay, conditions: pH 2.7

Compound | chromatographic logP
CCNCC(=O)c1c([O-])n(Cc2cnc(Cl)s2)c2cccc[n+]12 [Example I-1-021, 1-[(2-Chloro-1,3-thiazol-5-yl)methyl]-3-(N-ethylglycyl)-1H-imidazo[1,2-a]pyridin-4-ium-2-olate] | 0.57
